Patent US11179348B2, “Combination comprising pterostilbene for the treatment of cancer” (FUNDACIÓN UNIVERSIDAD CATÓLICA DE VALENCIA SAN VICENTE …, priority 2015, dated 2021)

System: AsPC-1 pancreatic cancer cells
Experiment: Nrf2- and redox state-related enzyme activities and metabolites in AsPC-1 cells growing in vivo
Parameters: species or system human
Details: AsPC-1, in vivo +Pter, day 28
Description: To measure enzyme activity, isolated tumor cells were homogenized in 0.1 M phosphate buffer (pH 7.2) at 4° C. GCL and GSS activities were measured as described previously (Obrador, E. et al. Hepatology 35, 74-81 (2002)). GPX (selenium dependent) activity was measured as described by Flohé and Gunzler (Flohe, L. & Gunzler, W. A. Methods Enzymol 105, 114-121 (1984)) using H2O2 as a substrate. GSR activity was determined as described by Akerboom and Sies (Akerboom, T. P. et al, Bull Eur Physiopathol Respir 17 Suppl, 221-227 (1981)). GGT activity was measured as described previously (Obrador, E. et al. Hepatology 35, 74-81 (2002)). GST activity was measured using an assay kit from Sigma. TXNRD activity, defined by the concentration of sodium-lipoate (disulfide) reduced to dehydrolipoate (dithiol) per milligram protein, was measured as previously described (Javvadi, P. et al. Cancer Res 70, 1941-1950 (2010)). SOD activity was measured as described by Flohé and Otting (Flohe, L. & Otting, F. Methods Enzymol 105, 93-104 (1984).) using 2 mM cyanide in the assay medium to distinguish mangano-type enzyme (SOD2) from the cuprozinc type (SOD1). CAT activity was analyzed as described by Aebi (Aebi, H. Methods Enzymol 105, 121-126 (1984)). NOX activity was measured by chemiluminescence following the methodology of Wind et al. (Wind, S. et al. Comparative pharmacology of chemically distinct NADPH oxidase inhibitors. Br J Pharmacol 161, 885-898 (2010)). Protein concentration was determined with the Pierce BCA protein assay (Fisher Scientific, Waltham, Mass.). […]
GSH, GSSG, NADP^+ and NADPH Determination.
GSH and GSSG were determined, following procedures previously described (Obrador, E. et al. PLoS One 9, e96466 (2014)), by LC/MS using the same equipment described above for pterostilbene determination. Cell processing was performed according to published methodology, where rapid N-ethylmaleimide derivatization was used to prevent GSH auto-oxidation (Asensi, M. et al. Anal Biochem 217, 323-328 (1994)). NADP^+ and NADPH were quantitated using an assay kit from Sigma (St. Louis, Mo.).

## COc1cc(/C=C/c2ccc(O)cc2)cc(OC)c1 [Pter, trans-3,5-dimethoxy-4′-hydroxystilbene]
  CAT: 1.2 ± 0.3 mU/10^6 cells
  G6PDH: 317 ± 84 mU/10^6 cells
  GCL: 85 ± 27 mU/10^6 cells
  GGT: 27.5 ± 7.4 mU/10^6 cells
  GPX: 15.0 ± 2.6 mU/10^6 cells
  GSH: 10.4 ± 2.0 nmol/10^6 cells
  GSH/GSSG: 35 ± 6
  GSR: 5.5 ± 1.2 mU/10^6 cells
  GSS: 12.4 ± 2.7 mU/10^6 cells
  GSSG: 0.3 ± 0.1 nmol/10^6 cells
  GST: 8.0 ± 1.5 mU/10^6 cells
  H2O2: 1.4 ± 0.3 nmol/10^6 cells × min
  IDH: 1.0 ± 0.3 U/10^6 cells
  ME: 55 ± 15 mU/10^6 cells
  NADPH: 0.05 ± 0.02 nmol/mg prot
  NADPH/NADP^+: 1.7 ± 0.4
  NADP^+: 0.03 ± 0.01 nmol/mg prot
  NOX: 115 ± 33 R.L.U./10^6 cells
  O2′−: 8.4 ± 2.4 ΔFL1, a.u.
  SOD1: 0.2 ± 0.05 U/10^6 cells
  SOD2: 0.05 ± 0.02 U/10^6 cells
  TXN: 0.3 ± 0.15 μg/10^6 cells
  TXNRD: 0.7 ± 0.2 U/10^6 cells
